Laboratory results from patent publication US8258160B2, “SCD1 inhibitors triazole and tetrazole compounds” (Novartis AG, priority 2006, dated 2012).

Row | SMILES | melting point
1 | Cc1nc(-c2cn(Cc3ccc(F)cc3)nn2)sc1C(=O)NCc1ccccc1 [Example 1.2, N-benzyl-2-(1-(4-fluorobenzyl)-1H-1,2,3-triazol-4-yl)-4-methylthiazole-5-carboxamide] | 114 to 115 °C
2 | Cc1nc(-c2cn(Cc3ccc(C(F)(F)F)cc3)nn2)sc1C(=O)NCc1ccccc1 [Example 1.3, N-benzyl-4-methyl-2-(1-(4-(trifluoromethyl)benzyl)-1H-1,2,3-triazol-4-yl)thiazole-5-carboxamide] | 131 to 132 °C
3 | Cc1nc(-c2cn(Cc3ccccc3)nn2)sc1C(=O)NCc1cccnc1 [Example 4, 2-(1-benzyl-1H-1,2,3-triazol-4-yl)-4-methyl-N-(pyridin-3-ylmethyl)thiazole-5-carboxamide] | 212 to 213 °C
4 | Cc1nc(-c2cn(Cc3ccc(F)cc3)nn2)sc1C(=O)NCc1cccnc1 [Example 4.1, 2-(1-(4-fluorobenzyl)-1H-1,2,3-triazol-4-yl)-4-methyl-N-(pyridin-3-ylmethyl)thiazole-5-carboxamide] | 212 to 213 °C
5 | Cc1nc(-c2cn(Cc3ccc(C(F)(F)F)cc3)nn2)sc1C(=O)NCc1cccnc1 [Example 4.2, 4-methyl-N-(pyridin-3-ylmethyl)-2-(1-(4-(trifluoromethyl)benzyl)-1H-1,2,3-triazol-4-yl)thiazole-5-carboxamide] | 204 to 205 °C
6 | Cc1nc(-c2cn(CCC3CC3)nn2)sc1C(=O)NCc1cccnc1 [Example 4.4, 2-(1-(2-cyclopropylethyl)-1H-1,2,3-triazol-4-yl)-4-methyl-N-(pyridin-3-ylmethyl)thiazole-5-carboxamide] | 124 to 125 °C
7 | Cc1nc(-c2cn(CC3CC3)nn2)sc1C(=O)NCc1cccnc1 [Example 4.5, 2-(1-(cyclopropylmethyl)-1H-1,2,3-triazol-4-yl)-4-methyl-N-(pyridin-3-ylmethyl)thiazole-5-carboxamide] | 140 to 141 °C
8 | Cc1nc(-c2nn[nH]n2)sc1C(=O)NCc1cccnc1 [Example 6, 4-methyl-N-(pyridin-3-ylmethyl)-2-(2H-tetrazol-5-yl)thiazole-5-carboxamide] | > 200 °C (dec.)
9 | Cc1nc(-c2n[nH]c(Cc3ccccc3)n2)sc1C(=O)NCc1ccccc1 [Example 8, N-benzyl-2-(5-benzyl-1H-1,2,4-triazol-3-yl)-4-methylthiazole-5-carboxamide] | 235 to 237 °C
10 | Cc1cc(-c2n[nH]c(Cc3ccccc3)n2)sc1C(=O)NCc1ccccc1 [Example 9, N-benzyl-5-(5-benzyl-1H-1,2,4-triazol-3-yl)-3-methylthiophene-2-carboxamide] | 168 to 171 °C
11 | Cc1nc(-n2cc(-c3ccccc3)nn2)sc1C(=O)NCc1ccccc1 [Example 10, N-benzyl-4-methyl-2-(4-phenyl-1H-1,2,3-triazol-1-yl)thiazole-5-carboxamide] | 175 to 178 °C
12 | Cc1nc(-n2cc(CCc3ccccc3)nn2)sc1C(=O)NCc1ccccc1 [Example 10.2, N-benzyl-4-methyl-2-(4-phenethyl-1H-1,2,3-triazol-1-yl)thiazole-5-carboxamide] | 167 to 170 °C
13 | Cc1nc(-n2cc(CCCc3ccccc3)nn2)sc1C(=O)NCc1ccccc1 [Example 10.3, N-benzyl-4-methyl-2-(4-(3-phenylpropyl)-1H-1,2,3-triazol-1-yl)thiazole-5-carboxamide] | 94 to 97 °C
14 | Cc1nc(-n2cc(COc3ccccc3)nn2)sc1C(=O)NCc1ccccc1 [Example 10.4, N-benzyl-4-methyl-2-(4-(phenoxymethyl)-1H-1,2,3-triazol-1-yl)thiazole-5-carboxamide] | 140 to 143 °C
15 | COc1ccc(-c2cn(-c3nc(C)c(C(=O)NCc4ccccc4)s3)nn2)cc1 [Example 10.5, N-benzyl-2-(4-(4-methoxyphenyl)-1H-1,2,3-triazol-1-yl)-4-methylthiazole-5-carboxamide] | 168 to 171 °C
16 | Cc1nc(-n2cc(-c3ccccn3)nn2)sc1C(=O)NCc1ccccc1 [Example 10.6, N-benzyl-4-methyl-2-(4-(pyridin-2-yl)-1H-1,2,3-triazol-1-yl)thiazole-5-carboxamide] | 184 to 187 °C
17 | Cc1nc(-n2cc(C(O)c3ccccc3)nn2)sc1C(=O)NCc1ccccc1 (stereo not shown) [Example 10.7, N-benzyl-2-(4-(hydroxy(phenyl)methyl)-1H-1,2,3-triazol-1-yl)-4-methylthiazole-5-carboxamide] | 143 to 146 °C
18 | Cc1nc(-n2cc(-c3ccc(OCc4ccccc4)cc3)nn2)sc1C(=O)NCc1ccccc1 [Example 10.8, N-benzyl-2-(4-(4-(benzyloxy)phenyl)-1H-1,2,3-triazol-1-yl)-4-methylthiazole-5-carboxamide] | 237 to 240 °C
19 | Cc1nc(-n2cc(-c3cccnc3)nn2)sc1C(=O)NCc1ccccc1 [Example 10.9, N-benzyl-4-methyl-2-(4-(pyridin-3-yl)-1H-1,2,3-triazol-1-yl)thiazole-5-carboxamide] | 117 to 119 °C

Row | SMILES | melting point
20 | Cc1nc(-n2cc(CNc3ccccc3)nn2)sc1C(=O)NCc1ccccc1 [Example 10.10, N-benzyl-4-methyl-2-(4-((phenylamino)methyl)-1H-1,2,3-triazol-1-yl)thiazole-5-carboxamide] | 159 to 162 °C
21 | Cc1nc(-n2cc(-c3ccsc3)nn2)sc1C(=O)NCc1ccccc1 [Example 10.11, N-benzyl-4-methyl-2-(4-(thiophen-3-yl)-1H-1,2,3-triazol-1-yl)thiazole-5-carboxamide] | 123 to 126 °C
22 | Cc1nc(-n2cc([C@H](O)c3ccccc3)nn2)sc1C(=O)NCc1ccccc1 [Example 10.12, (R)—N-benzyl-2-(4-(hydroxy(phenyl)methyl)-1H-1,2,3-triazol-1-yl)-4-methylthiazole-5-carboxamide] | 146 to 149 °C
23 | Cc1nc(-n2cc(-c3ccc(F)cc3)nn2)sc1C(=O)NCc1ccccc1 [Example 10.13, N-benzyl-2-(4-(4-fluorophenyl)-1H-1,2,3-triazol-1-yl)-4-methylthiazole-5-carboxamide] | 203 to 205 °C
24 | Cc1nc(-n2cc(C(=O)c3ccccc3)nn2)sc1C(=O)NCc1ccccc1 [Example 11, 2-(4-benzoyl-1H-1,2,3-triazol-1-yl)-N-benzyl-4-methylthiazole-5-carboxamide] | 176 to 178 °C
25 | Cc1nc(-n2cc(CCCc3ccccc3)nn2)sc1C(=O)NCc1cccnc1 [Example 14, 4-methyl-2-(4-(3-phenylpropyl)-1H-1,2,3-triazol-1-yl)-N-(pyridin-3-ylmethyl)thiazole-5-carboxamide] | 108 to 110 °C
26 | Cc1nc(-n2cc(CCCc3ccccc3)nn2)sc1C(=O)NCc1ccc(F)c(F)c1 [Example 14.1, N-(3,4-difluorobenzyl)-4-methyl-2-(4-(3-phenylpropyl)-1H-1,2,3-triazol-1-yl)thiazole-5-carboxamide] | 81 to 84 °C
27 | Cc1nc(-n2cc(CCc3ccccc3)nn2)sc1C(=O)NCc1cccnc1 [Example 14.2, 4-methyl-2-(4-phenethyl-1H-1,2,3-triazol-1-yl)-N-(pyridin-3-ylmethyl)thiazole-5-carboxamide] | 114 to 116 °C
28 | Cc1nc(-n2cc(C(=O)NCc3ccccc3)nn2)sc1C(=O)NCc1ccccc1 [Example 18, N-benzyl-2-(4-(benzylcarbamoyl)-1H-1,2,3-triazol-1-yl)-4-methylthiazole-5-carboxamide] | 178 to 180 °C
29 | Cc1nc(-n2nnc(C(=O)NCc3ccccc3)c2C)sc1C(=O)NCc1ccccc1 [Example 18.2, N-benzyl-2-(4-(benzylcarbamoyl)-5-methyl-1H-1,2,3-triazol-1-yl)-4-methylthiazole-5-carboxamide] | 183 to 186 °C
30 | Cc1cc(-n2nnc(-c3ccccc3)n2)sc1C(=O)NCc1ccccc1 [Example 21, N-benzyl-3-methyl-5-(5-phenyl-2H-tetrazol-2-yl)thiophene-2-carboxamide] | 155 to 158 °C
31 | Cc1cc(-c2ncn(Cc3ccc(F)cc3)n2)sc1C(=O)NCc1ccccc1 [Example 23, N-benzyl-5-(1-(4-fluorobenzyl)-1H-1,2,4-triazol-3-yl)-3-methylthiophene-2-carboxamide] | 128 to 130 °C
32 | Cc1cc(-c2ncn(Cc3ccc(F)cc3)n2)sc1C(=O)NCc1cccnc1 [Example 23.1, 5-(1-(4-fluorobenzyl)-1H-1,2,4-triazol-3-yl)-3-methyl-N-(pyridin-3-ylmethyl)thiophene-2-carboxamide] | 154 to 155 °C
33 | Cc1nc(-c2cc(CCc3ccccc3)no2)sc1C(=O)NCc1ccccc1 [Example 27.1, N-benzyl-4-methyl-2-(3-phenethylisoxazol-5-yl)thiazole-5-carboxamide] | 114 to 115 °C
34 | Cc1nc(-c2cn(CC(F)(F)c3ccccc3)nn2)sc1C(=O)NCc1cccnc1 [Example 30, 2-(1-(2,2-difluoro-2-phenylethyl)-1H-1,2,3-triazol-4-yl)-4-methyl-N-(pyridin-3-ylmethyl)thiazole-5-carboxamide] | 150 to 151 °C
35 | Cc1nc(-n2[nH]c(C)c(Cc3ccc(Cl)cc3)c2=O)sc1C(=O)NCc1cccnc1 [Example 33, 2-(4-(4-chlorobenzyl)-3-methyl-5-oxo-2,5-dihydro-1H-pyrazol-1-yl)-4-methyl-N-(pyridin-3-ylmethyl)thiazole-5-carboxamide] | 215 to 217 °C
36 | Cc1nc(-c2noc(Cc3ccccc3)n2)sc1C(=O)NCc1ccccc1 [Example 34, N-benzyl-2-(5-benzyl-1,2,4-oxadiazol-3-yl)-4-methylthiazole-5-carboxamide] | 124 to 125 °C
37 | Cc1nc(-c2cnc(Cc3ccccc3)o2)sc1C(=O)NCc1ccccc1 [Example 36, N-benzyl-2-(2-benzyloxazol-5-yl)-4-methylthiazole-5-carboxamide] | 141 to 142 °C
